From ChEMBL document CHEMBL1201862, “PubChem BioAssay data set” (2004)
Where “and” joins values, the source holds several entries; their conditions need not be identical. Equal values may be shown once. Calls of active or inactive are those of the source.

Key:
Streptococcus = assay: GAS UMAA2166 growth inhibition – luminescence, BacTiterGlo, counter-screen for streptokinase expression inhibitor project, dose response (AID 1915); format: functional, organism-based;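 further: potency for reduction of bacterial viability or growth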
[1] = biological target: T1, Replicative DNA helicase DnaB (Mycobacterium tuberculosis, UniProt P9WMR3); assay: DnaB intein splicing inhibitors, dose response, biochemical, cell-free fluorescence (AID 449749); format: functional
T1 sequence (P9WMR3 whole entry): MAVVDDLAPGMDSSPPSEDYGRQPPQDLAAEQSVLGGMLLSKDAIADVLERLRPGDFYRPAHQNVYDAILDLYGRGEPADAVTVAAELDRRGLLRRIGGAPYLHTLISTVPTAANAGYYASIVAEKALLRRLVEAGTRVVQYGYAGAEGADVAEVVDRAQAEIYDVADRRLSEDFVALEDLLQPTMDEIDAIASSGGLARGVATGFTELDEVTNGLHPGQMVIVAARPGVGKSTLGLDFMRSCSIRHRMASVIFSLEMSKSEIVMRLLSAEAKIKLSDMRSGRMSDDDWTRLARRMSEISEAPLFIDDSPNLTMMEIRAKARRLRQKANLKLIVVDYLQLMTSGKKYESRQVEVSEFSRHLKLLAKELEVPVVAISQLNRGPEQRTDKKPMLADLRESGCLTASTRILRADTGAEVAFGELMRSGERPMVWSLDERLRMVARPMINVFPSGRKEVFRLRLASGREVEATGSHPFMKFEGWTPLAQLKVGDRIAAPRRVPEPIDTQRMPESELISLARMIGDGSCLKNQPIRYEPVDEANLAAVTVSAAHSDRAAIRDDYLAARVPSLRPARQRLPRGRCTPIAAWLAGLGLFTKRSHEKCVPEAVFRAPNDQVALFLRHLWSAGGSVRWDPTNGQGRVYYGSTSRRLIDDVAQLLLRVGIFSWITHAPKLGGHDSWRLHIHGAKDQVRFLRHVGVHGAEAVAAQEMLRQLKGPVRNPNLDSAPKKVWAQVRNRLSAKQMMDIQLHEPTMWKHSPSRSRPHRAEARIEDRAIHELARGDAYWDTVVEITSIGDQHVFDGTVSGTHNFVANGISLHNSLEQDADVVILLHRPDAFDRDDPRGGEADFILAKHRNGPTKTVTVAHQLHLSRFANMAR

Protein RecA = biological target: T2, Protein RecA (Mycobacterium tuberculosis, UniProt P9WHJ3); assay: Fluorescence Cell-Free Homogeneous Dose Retest to Identify Inhibitors of RecA-Intein Splicing Activity. [Related pubchem assays (depositor defined):AID2097, AID2223, AID489010, AID492950]; format: functional
T2 sequence (P9WHJ3 whole entry): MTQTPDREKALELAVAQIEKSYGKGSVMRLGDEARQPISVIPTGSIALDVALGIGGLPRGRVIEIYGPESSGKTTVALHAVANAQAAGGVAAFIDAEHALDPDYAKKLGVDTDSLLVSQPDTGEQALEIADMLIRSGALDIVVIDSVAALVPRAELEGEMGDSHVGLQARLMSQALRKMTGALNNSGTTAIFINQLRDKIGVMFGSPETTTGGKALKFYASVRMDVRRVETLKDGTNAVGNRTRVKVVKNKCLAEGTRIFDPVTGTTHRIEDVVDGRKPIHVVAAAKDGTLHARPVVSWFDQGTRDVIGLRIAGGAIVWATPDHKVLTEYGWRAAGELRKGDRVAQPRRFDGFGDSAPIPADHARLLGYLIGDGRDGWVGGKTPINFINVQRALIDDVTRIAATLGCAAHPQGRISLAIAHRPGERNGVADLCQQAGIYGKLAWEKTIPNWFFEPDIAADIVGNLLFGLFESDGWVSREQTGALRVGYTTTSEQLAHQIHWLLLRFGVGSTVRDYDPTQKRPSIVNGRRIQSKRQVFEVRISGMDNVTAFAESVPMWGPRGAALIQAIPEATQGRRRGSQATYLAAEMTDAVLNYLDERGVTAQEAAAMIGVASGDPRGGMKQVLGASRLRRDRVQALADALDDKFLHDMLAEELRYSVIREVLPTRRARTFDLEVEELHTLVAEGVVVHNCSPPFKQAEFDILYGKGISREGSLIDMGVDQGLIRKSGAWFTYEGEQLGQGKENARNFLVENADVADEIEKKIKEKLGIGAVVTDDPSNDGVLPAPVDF

[2] = biological target: T3, Apoptotic protease-activating factor 1 (Homo sapiens, UniProt O14727); format: functional
T3 sequence (O14727 whole entry): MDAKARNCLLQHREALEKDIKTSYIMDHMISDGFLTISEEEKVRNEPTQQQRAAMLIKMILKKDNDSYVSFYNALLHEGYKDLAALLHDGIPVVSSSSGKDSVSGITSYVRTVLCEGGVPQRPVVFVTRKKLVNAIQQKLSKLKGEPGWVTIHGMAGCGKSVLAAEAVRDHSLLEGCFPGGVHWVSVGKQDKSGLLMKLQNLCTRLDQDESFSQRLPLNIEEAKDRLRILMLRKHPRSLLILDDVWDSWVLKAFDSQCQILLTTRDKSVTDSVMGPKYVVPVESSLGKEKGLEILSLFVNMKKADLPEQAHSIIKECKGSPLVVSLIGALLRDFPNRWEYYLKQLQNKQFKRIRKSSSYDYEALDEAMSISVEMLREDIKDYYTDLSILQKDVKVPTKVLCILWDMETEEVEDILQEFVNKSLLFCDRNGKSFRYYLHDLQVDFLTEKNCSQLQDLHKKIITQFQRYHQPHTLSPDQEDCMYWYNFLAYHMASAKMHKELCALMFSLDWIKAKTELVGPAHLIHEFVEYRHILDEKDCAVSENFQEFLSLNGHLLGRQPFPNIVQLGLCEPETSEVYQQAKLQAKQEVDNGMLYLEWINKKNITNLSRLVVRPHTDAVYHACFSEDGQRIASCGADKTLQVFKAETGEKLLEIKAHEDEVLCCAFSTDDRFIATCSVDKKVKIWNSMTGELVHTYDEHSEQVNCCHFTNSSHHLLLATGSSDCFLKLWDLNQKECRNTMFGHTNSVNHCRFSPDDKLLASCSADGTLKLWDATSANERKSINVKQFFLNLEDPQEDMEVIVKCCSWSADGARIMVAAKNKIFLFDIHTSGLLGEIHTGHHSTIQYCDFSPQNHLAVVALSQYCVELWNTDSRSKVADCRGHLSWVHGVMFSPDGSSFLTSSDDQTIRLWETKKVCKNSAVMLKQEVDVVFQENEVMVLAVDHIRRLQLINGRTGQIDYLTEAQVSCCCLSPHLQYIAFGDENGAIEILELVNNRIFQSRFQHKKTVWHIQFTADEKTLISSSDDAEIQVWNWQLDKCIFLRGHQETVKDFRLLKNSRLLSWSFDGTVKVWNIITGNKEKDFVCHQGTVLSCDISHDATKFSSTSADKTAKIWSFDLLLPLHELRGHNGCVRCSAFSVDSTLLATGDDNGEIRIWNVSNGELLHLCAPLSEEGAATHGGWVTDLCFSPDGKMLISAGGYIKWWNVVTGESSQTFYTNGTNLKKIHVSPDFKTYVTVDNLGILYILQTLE

O=C(Nc1ccccc1Cl)/C(Cl)=C(\Cl)[S+]([O-])c1ccccc1 (stereo not given)
active: EC50 (Streptococcus; Streptococcus) 5.14 µM | AC50 [1] 2.7 µM | EC50 (Protein RecA) 0.935 µM

CCCCCCCCCCCCCCCCn1cc[n+](C)c1
active: EC50 (Streptococcus) 4.64 µM | EC50 (Streptococcus; Streptococcus) 8.54 µM | AC50 [1] 3.37 µM and 3.76 µM | IC50 [2] 22.2 µM and 21.1 µM | EC50 (Protein RecA) 9.84 µM and 8.55 µM

O=C(NC1(O)C(=O)c2ccccc2C1=O)c1ccccc1
active: AC50 [1] 7.72 µM | IC50 [2] 3.22 µM | EC50 (Protein RecA) 16.4 µM

Cc1cc(C)nc(/N=c2/ssnc2Cl)c1
active: IC50 [2] 2.9 µM

Cc1ccc(C)c(S(=O)(=O)/N=C2\C=C(NS(=O)(=O)c3ccccc3)C(=O)c3ccccc32)c1
active: AC50 [1] 2.17 µM | IC50 [2] 12 µM | EC50 (Protein RecA) 2.25 µM
